Our source for the GI50 and TGI values is PubChem BioAssay (NCI).

Several values for one entry are separate records, joined by “and”; a condition that tells them apart may be missing. Equal values may be shown once.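 Values below derive from 48-hour exposures of cells grown in 96-well plates, with endpoints linearly interpolated between the two concentrations bracketing the appropriate inhibition level. Here, GI50 denotes the concentration required for 50% inhibition of growth. TGI denotes the concentration required for complete inhibition of growth.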

Assay in all cases: NCI anticancer screen, dose series, 48 h
Test [1] deals with UACC-62 melanoma.
The test system of test [2] is EKVX NSCLC.
Test [3] relates to SK-MEL-5 melanoma.
Test [4] concerns LOX IMVI melanoma.
For test [5], the system named is MCF7 breast.
Test [6] relates to CAKI-1 renal.
Test [7] deals with SF-539 CNS.
Test [8] relates to SNB-19 CNS.
Test [9] relates to NCI-H226 lung.
Test [10] has as its system HCT-116 colon.

For `CCN(CC)c1ccc(C(=N)c2ccc(N(C)C)cc2)cc1`, the GI50 in test [1] was 1.35 µM; in test [2], 2.04 µM; in test [3], 0.159 µM; in test [4], 1.21 µM; in test [5] it was 0.197 µM; in [6], 0.246 µM. The GI50 in test [7] is 1.63 µM; in [8], 2.19 µM; in [9], 1.5 µM; in test [10], 0.155 µM. The TGI in test [1] was found to be 7.03 µM; in test [2], 16.5 µM; in test [3] it was 1.94 µM; in test [4], 7.22 µM; in test [5], 7.25 µM; in test [6] it was 7.73 µM. The TGI stood at 4.18 µM in [7], 10.1 µM in [8], 5.46 µM in test [9] and 3.39 µM in test [10].
`CN(C(=O)c1ccncc1)c1ccccc1`: the TGI in [1], in [2], in test [3], in test [4], in test [5] and in test [6] was greater than 100 µM throughout. The TGI in [7], in [8], in test [9] and in [10] was greater than 100 µM in each case.
With `CSC1(SC2=NCCN2)SC2(NCCN2)S1`, the TGI came to 32.7 µM in [1]; 40.5 µM in test [2]; 35 µM in [3]; 25.7 µM in test [4]; 12.8 µM in [5]; 27 µM in test [6]. The TGI in [7] came to 56.5 µM; in test [8], 41.9 µM; in [9], 56.7 µM; in test [10] it was 31.7 µM.
Take `OCC1OC(n2cnc3c(=S)nc[nH]c32)C(O)C1O` (stereo unspecified): the GI50 in [1] was 3.56 µM; in test [2], greater than 100 µM; in [3] it was 9.5 µM; in [4], 0.705 µM; in test [5], 1.82 µM; in test [6] it was 6.94 µM. Besides, the GI50 in test [7] is 3.3 µM; in test [8], greater than 65.2 µM; in test [9], greater than 31.1 µM; in test [10], 2.78 µM. Further, the TGI in test [1] is 1910 µM and > 100 µM; in test [2] it was greater than 2500 µM; in test [3], greater than 2500 µM; in test [4] it was greater than 2500 µM; in test [5], greater than 2500 µM; in test [6] it was greater than 2500 µM. Further, the TGI in test [7] is greater than 2500 µM; in test [8], greater than 1960 µM; in [9], greater than 2500 µM; in test [10], greater than 2500 µM.
In the case of `S=C(Nc1cc(Cl)c(Cl)cc1Cl)SCc1ccccc1`, the TGI in test [1] is greater than 100 µM; in [2] it was greater than 100 µM; in test [3], 37.7 µM; in test [5], greater than 100 µM; in [6], 44 µM; in test [7] it was 48.3 µM. Also, the TGI turned out to be 96.9 µM in test [8], 42.4 µM in [9] and 83 µM in [10].
Regarding `c1ccc(CSc2nnc3c4ccccc4c4ccccc4c3n2)cc1`, the TGI in [1], in test [2], in [3], in [4], in test [5] and in test [6] was greater than 100 µM throughout. The TGI in [7] is greater than 100 µM; in test [8], greater than 78.1 µM; in [9], greater than 100 µM; in test [10], greater than 100 µM.
As for `Clc1nc(Cl)c(-c2ccccc2)c(Cl)n1`, the TGI was determined as 10.7 µM in [1]; 3.46 µM in test [2]; 9.36 µM in test [3]; 3.73 µM in test [4]; 9.45 µM in test [5]; 3.33 µM in test [6]. Besides, the TGI is 10.9 µM in test [7], 28.5 µM in [8], 5.76 µM in [9] and 3.6 µM in test [10].
As for `Cc1c(Cl)cccc1NC1=C(Cl)C(=O)N(Cc2ccccc2)C1=O`, the GI50 in [1] is 6.15 µM; in test [3], 11.7 µM; in test [4], 4.83 µM; in test [5], 25.3 µM; in test [6], 1.11 µM; in test [8], 22.1 µM. For the same compound, the GI50 in test [9] is 12.1 µM; in test [10], 10.4 µM. Moreover, the TGI was determined as 19.7 µM in test [1]; 23.9 µM in test [3]; 47.8 µM in test [4]; 59 µM in [5]; 5.06 µM in test [6]; 61.5 µM in test [8]. In addition, the TGI is 38.4 µM in [9] and 22.1 µM in [10].
With `CCOC(=O)c1nc(Nc2ccc(Cl)cc2)c2ccccc2n1`, the GI50 was 10 µM in test [1]; 13 µM in test [2]; 7.19 µM in test [3]; 9.92 µM in [4]; 13.6 µM in test [5]; 7.73 µM in test [6]. Besides, the values for the GI50 in test [7], in [8] and in [10] were 10.6 µM, 13.5 µM and 25.1 µM, respectively. In addition, the TGI in [1] was 20.5 µM; in test [2] it was 44.1 µM; in test [3], 13.8 µM; in [4], 18.6 µM; in [5], greater than 50 µM; in test [6], 16.3 µM. In addition, the TGI was 20.9 µM in [7], 43.2 µM in test [8] and greater than 50 µM in test [10].
As for `N=C(N)c1ccc(COc2ccccc2OCc2ccc(C(=N)N)cc2)cc1`, the GI50 in [1] was 34.2 µM; in [2], 38.5 µM; in test [3], 17.1 µM; in test [5], 46.5 µM; in test [6], 2.11 µM; in test [7], 14 µM. Also, the GI50 in test [8] was 41.4 µM; in [9], 28.6 µM; in test [10], 35.2 µM. Further, the TGI in test [1] is greater than 100 µM; in test [2] it was greater than 100 µM; in test [3], 44.5 µM; in test [5] it was greater than 100 µM; in test [6], 29.8 µM; in [7], 34.6 µM. Further, the TGI in test [8] was greater than 100 µM; in [9], 81 µM; in test [10], greater than 100 µM.
Regarding `FC(F)(F)c1ccc(-c2cnc(Cl)nc2NCc2cc(C(F)(F)F)cc(C(F)(F)F)c2)cc1`, the GI50 in [1] was 3.34 µM; in [3], 5.19 µM; in test [4], 2.74 µM; in test [5] it was 2.65 µM; in test [6], 2.1 µM; in [7], 3.78 µM. Also, the figures for the GI50 in [8], in test [9] and in test [10] were 2.44 µM, 2.61 µM and 3.32 µM, respectively. In addition, the TGI in [1] is greater than 100 µM; in test [3], greater than 100 µM; in test [4], greater than 100 µM; in [5], greater than 100 µM; in [6], 7.52 µM; in test [7] it was greater than 100 µM. In addition, the TGI in [8], in test [9] and in test [10] was greater than 100 µM in each case.
Turning to `CCCCNC(=O)NS(=O)(=O)c1ccc(N2N=C(c3cc(C)ccc3C)CC2c2cc(OC)c(OC)c(OC)c2)cc1` (stereo unspecified), the GI50 is 1.83 µM in test [1]; 2.54 µM in test [3]; 2.24 µM in test [4]; 2.06 µM in test [5]; 3.07 µM in test [6]; 1.9 µM in test [7]. Also, the figures for the GI50 in test [8] and in test [9] were 2.75 µM and 3.29 µM, respectively. Besides, the TGI turned out to be 4.27 µM in [1]; 7.01 µM in [3]; 4.75 µM in [4]; 5.58 µM in test [5]; 12.7 µM in [6]; 3.88 µM in [7]. Further, the TGI is 12.7 µM in test [8] and 13 µM in test [9].
As for `Nc1c(C(=O)Nc2ccccc2)sc2nc3c(cc12)CN(Cc1ccccc1)CC3`, the GI50 was 13.9 µM in test [1]; 9.58 µM in test [3]; 10.5 µM in [4]; 12.1 µM in test [5]; 19.7 µM in test [6]; 2.78 µM in test [7]. The GI50 in [8] is 18.3 µM; in [9] it was 4.91 µM; in test [10] it was 11 µM. For the same compound, the TGI in test [1], in [3], in test [4], in test [5], in test [6] and in test [7] was greater than 100 µM each time. In addition, the TGI in test [8], in test [9] and in test [10] was greater than 100 µM each time.
Turning to `Cc1cn2c(/C=N/Nc3ccccn3)c(-c3ccc(Cl)c([N+](=O)[O-])c3)nc2s1`, the GI50 is 14.1 µM in test [1]; 21.6 µM in test [2]; 43.9 µM in test [3]; 8.03 µM in test [4]; 3.27 µM in [5]; 39 µM in test [6]. Further, the GI50 in test [7] was 1.12 µM; in test [8], 12.4 µM; in [10] it was 8.56 µM. Moreover, the TGI was 46.3 µM in test [1]; greater than 50 µM in test [2]; greater than 50 µM in test [3]; 16.5 µM in test [4]; greater than 50 µM in test [5]; greater than 50 µM in test [6]. The TGI in [7] worked out at 3.53 µM; in test [8], 32.7 µM; in test [10], 18.4 µM.
